Each structure is given as a SMILES string. Counter-ions that a name gives are not always drawn.

The values that follow come from patent US4820713A, “Ketoalkanol esters of dihydrolysergic acid useful as 5HT receptor antagonists” (Eli Lilly and Company, priority 1988, dated 1989).

Assay [1] has as its target 5HT2 receptors. The following applies: cited from earlier work.
For assay [2], the system named is vascular alpha adrenergic receptors. The following applies: in words; Cohen I; cited from earlier work.
In assay [3] the test system is 5HT2 receptors. As to conditions: in words; cited from earlier work.
Assay [4] deals with dopaminergic receptors. The following applies: in words; Cohen I; cited from earlier work.
Assay [5] concerns histaminergic receptors. As to conditions: in words; Cohen I; cited from earlier work.
For assay [6], the target named is T1, 5HT2 receptors (Rattus norvegicus, UniProt P14842).
T1 construct: external jugular veins and thoracic aortas dissected free of connective tissue; from tissue; host or cells: external jugular vein of male Wistar rats
T1 sequence (P14842 whole entry): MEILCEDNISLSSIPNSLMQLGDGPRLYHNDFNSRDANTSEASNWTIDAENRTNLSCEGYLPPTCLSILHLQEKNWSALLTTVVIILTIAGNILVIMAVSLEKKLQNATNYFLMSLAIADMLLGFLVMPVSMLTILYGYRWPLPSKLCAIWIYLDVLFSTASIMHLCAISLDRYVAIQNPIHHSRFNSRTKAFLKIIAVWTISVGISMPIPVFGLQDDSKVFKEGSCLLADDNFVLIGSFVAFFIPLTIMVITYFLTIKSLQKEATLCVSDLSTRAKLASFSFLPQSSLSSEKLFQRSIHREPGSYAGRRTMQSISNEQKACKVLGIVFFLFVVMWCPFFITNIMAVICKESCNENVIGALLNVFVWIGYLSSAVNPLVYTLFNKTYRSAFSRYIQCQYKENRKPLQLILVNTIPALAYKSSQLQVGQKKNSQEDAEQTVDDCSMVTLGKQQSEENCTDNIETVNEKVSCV
In words: Apparent antagonist dissociation constant (-log KB) versus serotonin-induced contraction of isolated rat jugular vein. Also noted: species or system male Wistar rats. The following applies: antagonist incubated one hour, 37° C., maleate salt, read-out: 5HT2 -Log Kb ± S.E. (converted). How it is done:
An initial optimum resting force of 1 and 4 g was applied to the jugular vein and aorta, respectively. […] Exp. Ther., 205, 400 (1978). Alpha receptor antagonist activity was evaluated in the aorta.

Assay [7] relates to blood pressure. The following applies: in humans; ketanserin; cited from earlier work.

Take `CC(O)C(C)OC(=O)[C@@H]1C[C@@H]2c3cccc4c3c(cn4C(C)C)C[C@H]2N(C)C1` (stereo partly drawn) [LY53857, 1-isopropyl-6-methyl-8β-(1-methyl-2-hydroxy)propoxycarbonyl-5R-ergoline]: the Kd in assay [1] (Cohen et al. J.P.E.T., 227, 327 (1983), read-out: Kdissoc. (5HT2 receptors)) was approximately 0.1 nM. The “antagonism of vascular contraction to serotonin” value in assay [1] (effect mediated by 5HT2 receptors, Cohen I) is reported as “potent antagonist of vascular contraction to serotonin”. In assay [2], the “affinity for vascular alpha adrenergic receptors” value is reported as “minimal affinity”. For the same compound, the “peripheral serotonin antagonist activity, ranking among Garbrecht compounds” value in assay [3] is “most active peripheral serotonin antagonist”. Further, the “affinity for dopaminergic receptors” value in assay [4] is recorded as “minimal affinity”. Further, the “affinity for histaminergic receptors” value in assay [5] is “minimal affinity”.

As usually defined, the Kb is the affinity of an antagonist, worked out from how it opposes an agonist. `CC(=O)[C@@H](C)OC(=O)[C@@H]1C[C@@H]2c3cccc4c3c(cn4C(C)C)C[C@H]2N(C)C1` [RCH(CH3)COCH3, R-1-methyl-2-oxopropyl 1-isopropyl-9,10-dihydrolysergate maleate]: in assay [6], the Kb was 0.355 nM.

For `CC(=O)[C@H](C)OC(=O)[C@@H]1C[C@@H]2c3cccc4c3c(cn4C(C)C)C[C@H]2N(C)C1` [SCH(CH3)COCH3, S-1-methyl-2-oxopropyl 1-isopropyl-9,10-dihydrolysergate], the Kb in assay [6] is 0.269 nM.

Consider `O=C(c1ccc(F)cc1)C1CCN(CCn2c(=O)[nH]c3ccccc3c2=O)CC1` [ketanserin], for which the lower blood pressure entry in assay [7] is on record as “lower blood pressure in humans”.
